The values that follow are results of earlier work, collected in article PMC12308805, “Ultrahigh-Throughput Virtual Screening Strategies against PPI Targets: A Case Study of STAT Inhibitors” (Journal of Chemical Information and Modeling, 2025).

The subject of this series is STAT3. Conditions: sheet 6QHD_actives_decoys, retrospective screening set for STAT3 SH2 domain (PDB 6QHD); decoys are presumed inactives, not tested; ref DUD-E; cited from earlier work.
`CCOC(=O)c1ccc(NC(=O)CCN2C(=O)/C(=C3\SC(=S)N(CCC(=O)Nc4ccc(C(=O)OCC)cc4)C3=O)SC2=S)cc1` [Decoy869]: the Type result is given as “Inactive (Decoy)”.
On to `Cc1cccc(N(C(=O)c2snc(C(N)=O)c2N)[C@H](C(=O)NCCC(C)C)c2ccc(N(C)C)cc2)c1` [Decoy870], for which the Type entry is reported as “Inactive (Decoy)”.
In the case of `COc1cc(NC(=O)CCSc2nnc(N/N=C/c3c(O)ccc4ccccc34)n2N)cc(OC)c1` [Decoy871], the Type result is on record as “Inactive (Decoy)”.
`COC(=O)c1[nH]c(C)c(C(=O)C2=C(O)C(=O)N(CCN3CCOCC3)[C@@H]2c2cc(OC)c(OC)c(OC)c2)c1C` [Decoy872]: the Type entry is reported as “Inactive (Decoy)”.
For the compound `COC(=O)c1[nH]c(C)c(C(=O)C2=C(O)C(=O)N(CCN3CCOCC3)[C@H]2c2cc(OC)c(OC)c(OC)c2)c1C` [Decoy873], the Type entry is given as “Inactive (Decoy)”.
Regarding `CC(C)N(C(=O)c1ccc(C(=O)Nc2cccc(NC(=O)c3ccc(C(=O)N(C(C)C)C(C)C)cc3)n2)cc1)C(C)C` [Decoy874], the Type entry was “Inactive (Decoy)”.
In the case of `CC(=C\C(=O)O)/C=C(\C)C[C@@H](C)CCCC[C@@H](O)[C@@H](CO)C(=O)OC[C@H]1O[C@@H](O)[C@@H](O)[C@@H](O)[C@H]1O` [Decoy875], the Type entry is listed as “Inactive (Decoy)”.
Take `CC(=C\C(=O)O)/C=C(\C)C[C@@H](C)CCCC[C@H](O)[C@@H](CO)C(=O)OC[C@H]1O[C@@H](O)[C@@H](O)[C@@H](O)[C@H]1O` [Decoy876]: the Type entry is “Inactive (Decoy)”.
As to `CCN(CC)c1ccc(/C=N/Nc2nnc(SCC(=O)Nc3ccc(OC)cc3OC)n2N)c(O)c1` [Decoy877], the Type result is “Inactive (Decoy)”.
On to `O[C@@H](CNCCOc1ccccc1OCCNC[C@H](O)COc1cccc2[nH]c3ccccc3c12)COc1cccc2[nH]c3ccccc3c12` [Decoy878], for which the Type result was “Inactive (Decoy)”.
Take `N[C@@H](CCC(=O)N[C@@H](CSCCN(CCSC[C@H](NC(=O)CC[C@H](N)C(=O)O)C(=O)NCC(=O)O)[P@](N)(=O)O)C(=O)NCC(=O)O)C(=O)O` [Decoy879]: the Type entry was “Inactive (Decoy)”.
Regarding `CC(=O)OC[C@@H]1O[C@@H](Oc2cc(O)cc(O)c2C(=O)CCc2ccc([N+](=O)[O-])cc2)[C@@H](OC(C)=O)[C@H](OC(C)=O)[C@H]1OC(C)=O` [Decoy880], the Type entry is “Inactive (Decoy)”.
Take `CC(=O)OC[C@H]1O[C@@H](Oc2cc(O)cc(O)c2C(=O)CCc2ccc([N+](=O)[O-])cc2)[C@@H](OC(C)=O)[C@H](OC(C)=O)[C@H]1OC(C)=O` [Decoy881]: the Type entry was “Inactive (Decoy)”.
As for `O=C(O)CN(CC(=O)O)C[C@@H](Cc1ccc(NCCCCCN2C(=O)C=CC2=O)cc1)N(CC(=O)O)CC(=O)O` [Decoy882], the Type entry is given as “Inactive (Decoy)”.
Consider `CO[C@@H]1[C@@H](OC(N)=O)[C@H](O)[C@@H](Oc2ccc3c(O)c(NC(=O)c4ccc(O)c(CC=C(C)C)c4)c(=O)oc3c2C)OC1(C)C` [Decoy883], for which the Type result is “Inactive (Decoy)”.
With `COc1cc(NC(=S)Nc2ccc(S(=O)(=O)/N=c3/cc(OC)nc(OC)[nH]3)cc2)cc(OC)c1` [Decoy884], the Type result was “Inactive (Decoy)”.
As to `CC(=O)O[C@@H]1[C@@H](O)[C@@H](O[C@@H](C/N=C/c2c(O)ccc3ccccc23)[C@@H](CO)O[C@H](O)C/N=C/c2c(O)ccc3ccccc23)O[C@@H](CO)[C@H]1O` [Decoy885], the Type result is recorded as “Inactive (Decoy)”.
As for `O=C(OC[C@@H]1O[C@H](Oc2ccc(O)cc2COC(=O)[C@@]2(O)[C@@H](O)CCC(=O)[C@@H]2O)[C@H](OC(=O)[C@H]2C=CCC2)[C@H](O)[C@@H]1O)[C@H]1C=CCC1` [Decoy886], the Type entry is listed as “Inactive (Decoy)”.
`COc1cc(/C(C)=N/NC(=O)c2nnn(-c3nonc3N)c2COc2ccc(F)cc2)ccc1OCc1ccc(Cl)cc1` [Decoy887]: the Type entry is given as “Inactive (Decoy)”.
As to `COc1ccc(C(OC[C@H]2O[C@H](Oc3ccc([N+](=O)[O-])cc3)[C@@H](O)[C@@H](O)[C@@H]2O)(c2ccccc2)c2ccc(OC)cc2)cc1` [Decoy888], the Type result is reported as “Inactive (Decoy)”.
For the compound `C[n+]1c(N[N-]S(=O)(=O)c2cccc(C(=O)NC(C)(C)CC(C)(C)CC(C)(C)C)c2)sc2ccc(S(=O)(=O)C(F)F)cc21` [Decoy889], the Type entry is recorded as “Inactive (Decoy)”.
Turning to `CCN(CC)S(=O)(=O)c1ccc(NC(=O)CSc2n[nH]c(N/N=C/c3ccccc3F)n2)cc1` [Decoy890], the Type entry is recorded as “Inactive (Decoy)”.
Regarding `O=C(O)CCNS(=O)(=O)c1ccc(NCCc2ccc(C(F)(F)F)cc2)c([N+](=O)[O-])c1` [Decoy891], the Type result is on record as “Inactive (Decoy)”.
For the compound `O=C(O)C[C@H](NS(=O)(=O)c1cc(S(=O)(=O)N[C@H](CC(=O)O)c2ccccc2)c2cccc3c2c1NC3=O)c1ccccc1` [Decoy892], the Type entry is given as “Inactive (Decoy)”.
As to `O=C(O)C[C@H](NS(=O)(=O)c1cc(S(=O)(=O)N[C@@H](CC(=O)O)c2ccccc2)c2cccc3c2c1NC3=O)c1ccccc1` [Decoy893], the Type result is recorded as “Inactive (Decoy)”.
Regarding `CN(CCO)c1ccc(/C=N\Nc2ccc(S(=O)(=O)Nc3ccccc3C(=O)O)cc2[N+](=O)[O-])cc1` [Decoy894], the Type result was “Inactive (Decoy)”.
Turning to `CC(=O)[C@@H]1CC[C@H]2[C@H]3CC=C4C[C@@H](O[C@@H]5O[C@H](CO)[C@@H](O)[C@H](O)[C@H]5O[C@@H]5O[C@H](CO)[C@@H](O)[C@H](O)[C@H]5O)CC[C@]4(C)[C@@H]3CC[C@]12C` [Decoy895], the Type result is on record as “Inactive (Decoy)”.
For `O=C1N=C([C@]2(C3=Nc4nnc(/N=C(\O)Nc5ccc(Cl)cc5)n4C3=O)Cc3ccccc3C2=O)n2c(/N=C(\O)Nc3ccc(Cl)cc3)nnc21` [Decoy896], the Type entry is on record as “Inactive (Decoy)”.
On to `CCCOc1ccc([C@@H]2c3c(n[nH]c3-c3cc(C)cc(C)c3O)C(=O)N2CCCOC(C)C)cc1OCC` [Decoy897], for which the Type result is “Inactive (Decoy)”.
As to `COc1ccc(CCN/C(=N/c2nc(C)cc(C)n2)NS(=O)(=O)c2ccc(Br)cc2)cc1OC` [Decoy898], the Type result is given as “Inactive (Decoy)”.
In the case of `COc1ccc(CCNc2ccc3nnc(CCNS(=O)(=O)c4ccccc4OC)n3n2)cc1OC` [Decoy899], the Type result is listed as “Inactive (Decoy)”.
For the compound `COc1ccccc1OCCNC[C@H](O)COc1cccc2c1c1ccccc1n2C[C@H](O)COc1cccc2[nH]c3ccccc3c12` [Decoy900], the Type result is “Inactive (Decoy)”.
Consider `Cc1cc(C)nc(N/C(=N/C(=O)Nc2cccc(Cl)c2)NCCSCc2[nH]cnc2C)n1` [Decoy901], for which the Type result was “Inactive (Decoy)”.
`CCc1ccc2c(c1)[C@@]1(N[C@@H](Cc3ccc(O)c(O)c3)[C@H]3C(=O)N(CCc4ccc(OC)c(OC)c4)C(=O)[C@H]31)C(=O)N2` [Decoy902]: the Type result was “Inactive (Decoy)”.
Regarding `COc1cc(-c2ccc(NC(=O)c3ccc(OC)c(OC)c3)c(OC)c2)ccc1NC(=O)c1ccc(OC)c(OC)c1` [Decoy903], the Type entry is reported as “Inactive (Decoy)”.
With `Cc1noc(C)c1CSc1ncccc1C(=O)O[C@H](C)C(=O)Nc1sccc1C(N)=O` [Decoy904], the Type result is on record as “Inactive (Decoy)”.
Regarding `CC(C)(CC[C@@H](O)[C@@](C)(O)[C@H]1CC[C@@]2(O)C3=CC(=O)[C@H]4C[C@@H](O)[C@@H](O)C[C@]4(C)[C@@H]3CC[C@]12C)O[C@H]1O[C@@H](CO)[C@@H](O)[C@@H](O)[C@H]1O` [Decoy905], the Type entry is recorded as “Inactive (Decoy)”.
On to `CCN(CC)c1ccc(NC(=O)CSc2n[nH]c(N/N=C/c3cc(OC)c(O)cc3[N+](=O)[O-])n2)cc1` [Decoy906], for which the Type entry is listed as “Inactive (Decoy)”.
Take `CCN(CC)C(=O)c1c[nH]c2ccc(S(=O)(=O)Nc3ccc4c(c3)OCCO4)cc2c1=O` [Decoy907]: the Type entry is listed as “Inactive (Decoy)”.
`CC(=O)O[C@@H]1[C@@H](O)[C@H](CO)O[C@H](O[C@@H](/C=N/c2cnc([N+](=O)[O-])s2)[C@@H](CO)O[C@H](O)/C=N/c2cnc([N+](=O)[O-])s2)[C@@H]1O` [Decoy908]: the Type entry was “Inactive (Decoy)”.
Take `CC(=O)O[C@H]1[C@@H](O)[C@@H](O[C@@H](/C=N\c2cnc([N+](=O)[O-])s2)[C@@H](CO)O[C@H](O)/C=N/c2cnc([N+](=O)[O-])s2)O[C@@H](CO)[C@H]1O` [Decoy909]: the Type entry is recorded as “Inactive (Decoy)”.
For the compound `COc1cc([C@H]2OC[C@H]3[C@@H]2CO[C@H]3c2ccc(O[C@@H]3O[C@H](CO[C@@H]4O[C@@H](C)[C@H](O)[C@@H](O)[C@H]4O)[C@@H](O)[C@H](O)[C@H]3O)c(OC)c2)ccc1O` [Decoy911], the Type entry was “Inactive (Decoy)”.
As to `O=C(CNS(=O)(=O)c1ccc(NC(=S)Nc2ccc([N+](=O)[O-])cc2)cc1)c1ccccc1` [Decoy913], the Type entry is reported as “Inactive (Decoy)”.
As for `COC(=O)c1sc(NC(=O)CCCS(=O)(=O)c2nc(-c3ccc(OC)c(OC)c3)cc(C(F)(F)F)n2)c(C(N)=O)c1C` [Decoy915], the Type entry is listed as “Inactive (Decoy)”.
With `CCOC(=O)c1sc(NC(=O)CSc2n[nH]c(N/N=C/c3ccc(C)cc3)n2)c(C#N)c1C` [Decoy916], the Type result was “Inactive (Decoy)”.
Turning to `CCC(CC)C(=O)Nc1cccc(C(=O)Nc2ccc(S(=O)(=O)Nc3nccc(C)n3)cc2)c1` [Decoy917], the Type entry is “Inactive (Decoy)”.
Take `Cc1ccc(S(=O)(=O)Nc2ccc(N3CCN(CC(=O)NCC(C)C)CC3)cc2C(=O)O)cc1` [Decoy918]: the Type entry is recorded as “Inactive (Decoy)”.
As to `CCn1cc([C@@H](C)NC(=S)Nc2ccc(S(=O)(=O)Nc3ncccn3)cc2)c(C)n1` [Decoy919], the Type result is given as “Inactive (Decoy)”.
Take `C=CCOC(=O)c1sc(NC(=O)[C@@H](CC)n2c(N)nnc2SCc2ccccc2Cl)nc1C` [Decoy920]: the Type entry was “Inactive (Decoy)”.
`COc1ccc(CNc2nc(NCc3ccc(OC)c(OC)c3)n(C(=O)c3ccc(C(C)(C)C)cc3)n2)cc1OC` [Decoy921]: the Type result is given as “Inactive (Decoy)”.
For the compound `Cc1ccc(S(=O)(=O)Nc2ccccc2/C=N/CC(O)C/N=C/c2ccccc2NS(=O)(=O)c2ccc(C)cc2)cc1` [Decoy922], the Type result is listed as “Inactive (Decoy)”.
On to `COc1ccc(NC(=O)CSc2nnc(NC(=O)c3cc(OC)c(OC)c(OC)c3)s2)cc1OC` [Decoy923], for which the Type result was “Inactive (Decoy)”.
For the compound `C=CCSc1ccccc1NC(=O)CSc1nnc(N/N=C/c2c(O)ccc3ccccc23)n1N` [Decoy924], the Type result is on record as “Inactive (Decoy)”.
